Results: US9018414B2, “Substituted 3-phenylpropionic acids and the use thereof” (Bayer Intellectual Property GmbH, priority 2009, dated 2015)

Experiments:
[1] = target: T1, haem-containing recombinant soluble guanylate cyclase (sGC) (Rattus norvegicus, UniProt P20595); assay: Stimulation of recombinant soluble guanylate cyclase (sGC) in vitro, haem-containing enzyme; type: biochemical; conditions: for Effect of combination with the NO donor DEA/NO on sGC stimulation: haem-containing sGC
T1 construct: made in house; host or cells: Sf9 insect cells (baculovirus)
T1 sequence (P20595 1-619): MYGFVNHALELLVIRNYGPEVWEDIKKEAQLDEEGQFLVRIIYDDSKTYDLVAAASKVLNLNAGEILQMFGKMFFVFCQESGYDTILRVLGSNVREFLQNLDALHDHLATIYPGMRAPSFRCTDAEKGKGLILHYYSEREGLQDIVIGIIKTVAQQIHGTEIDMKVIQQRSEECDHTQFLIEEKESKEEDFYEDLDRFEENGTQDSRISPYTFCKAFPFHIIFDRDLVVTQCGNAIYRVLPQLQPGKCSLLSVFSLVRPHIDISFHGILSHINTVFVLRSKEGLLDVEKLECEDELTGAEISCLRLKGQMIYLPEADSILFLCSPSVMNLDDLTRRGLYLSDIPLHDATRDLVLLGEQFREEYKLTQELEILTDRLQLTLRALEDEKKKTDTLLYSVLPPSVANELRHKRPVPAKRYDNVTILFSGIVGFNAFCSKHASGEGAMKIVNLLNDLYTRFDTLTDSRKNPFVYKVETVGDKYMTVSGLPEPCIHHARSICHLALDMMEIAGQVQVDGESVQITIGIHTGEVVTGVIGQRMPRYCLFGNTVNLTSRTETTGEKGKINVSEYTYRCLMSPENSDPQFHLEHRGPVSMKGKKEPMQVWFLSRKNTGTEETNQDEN
T1 sequence (P19686 1-690 partner): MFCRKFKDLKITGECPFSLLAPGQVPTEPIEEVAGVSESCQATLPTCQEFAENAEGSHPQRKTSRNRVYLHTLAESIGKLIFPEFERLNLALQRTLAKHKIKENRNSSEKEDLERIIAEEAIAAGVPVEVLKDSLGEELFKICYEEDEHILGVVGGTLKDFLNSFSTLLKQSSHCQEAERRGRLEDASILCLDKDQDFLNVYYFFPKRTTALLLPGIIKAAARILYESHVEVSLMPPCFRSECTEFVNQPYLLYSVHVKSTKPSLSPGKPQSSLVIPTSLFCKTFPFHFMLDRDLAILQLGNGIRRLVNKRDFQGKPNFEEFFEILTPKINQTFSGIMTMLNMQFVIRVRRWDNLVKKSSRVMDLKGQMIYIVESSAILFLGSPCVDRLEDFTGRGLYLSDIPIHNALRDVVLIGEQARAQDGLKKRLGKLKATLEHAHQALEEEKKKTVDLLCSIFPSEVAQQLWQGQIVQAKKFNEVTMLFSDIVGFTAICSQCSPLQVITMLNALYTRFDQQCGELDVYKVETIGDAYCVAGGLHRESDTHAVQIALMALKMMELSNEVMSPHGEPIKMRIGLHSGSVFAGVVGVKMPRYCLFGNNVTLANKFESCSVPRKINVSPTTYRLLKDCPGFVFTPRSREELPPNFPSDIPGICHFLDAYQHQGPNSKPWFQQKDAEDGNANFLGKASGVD
Description: (§1) Investigations on the stimulation of recombinant soluble guanylate cyclase (sGC) by the compounds according to the invention with and without sodium nitroprusside, and with and without the haem-dependent sGC inhibitor 1H-1,2,4-oxadiazolo-(4,3a)-quinoxalin-1-one (ODQ) are carried out by the method described in detail in the following reference: M. Hoenicka, E. M. Becker, H. Apeler, T. Sirichoke, H. Schroeder, R. Gerzer and J.-P. Stasch, “Purified soluble guanylyl cyclase expressed in a baculovirus/Sf9 system: Stimulation by YC-1, nitric oxide, and […]”, J. Mol. Med. 77 (1999), 14-23. The haem-free guanylate cyclase is obtained by adding Tween 20 to the sample buffer (0.5% in the final concentration).
(§2) The activation of sGC by a test substance is reported as x-fold stimulation of the basal activity.

[2] = target: T2, soluble guanylate cyclase (sGC) (Rattus norvegicus, UniProt P20595); assay: Stimulation of sGC enzyme activity (PPi detection, luciferase luminescence); type: biochemical; conditions: for EC50: EC50 = concentration at 50% of maximum efficacy, read-out: Activating action at the sGC enzyme in vitro, EC50; for Activating action at the sGC enzyme in vitro, MEC: MEC = minimal effective concentration
T2 construct: made in house; host or cells: Sf9 insect cells (baculovirus)
T2 sequence (P20595 1-619): T1 sequence (P20595 1-619)
T2 sequence (P19686 1-690 partner): T1 sequence (P19686 1-690 partner)
Description: Soluble guanylate cyclase (sGC) converts on stimulation GTP into cGMP and pyrophosphate (PPi). PPi is detected with the aid of the assay described below. The signal produced in the assay increases as the reaction progresses and serves as a measure of the sGC enzyme activity under the given stimulation.
To carry out the assay, 29 μl of enzyme solution [0-10 nM soluble guanylate cyclase (prepared according to Hönicka et al., J. Mol. Med. 77, 14-23 (1999)) in 50 mM TEA, 2 mM MgCl2, 0.1% BSA (fraction V), 0.005% Brij®, pH 7.5] are initially introduced into a microplate, and 1 μl of the substance to be tested (as a serially diluted solution in DMSO) is added. The mixture is incubated at room temperature for 10 min. Then 20 μl of detection mix [1.2 nM Firefly Luciferase (Photinus pyralis luciferase, Promega), 29 μM dehydroluciferin (prepared according to Bitler & McElroy, Arch. Biochem. Biophys. 72, 358 (1957)), 122 μM luciferin (Promega), 153 μM ATP (Sigma) and 0.4 mM DTT (Sigma) in 50 mM TEA, 2 mM MgCl2, 0.1% BSA (fraction V), 0.005% Brij®, pH 7.5] are added. The enzyme reaction is started by adding 20 μl of substrate solution [1.25 mM guanosine 5′-triphosphate (Sigma) in 50 mM TEA, 2 mM MgCl2, 0.1% BSA (fraction V), 0.005% Brij®, pH 7.5] and measured continuously in a luminometer. The extent of the stimulation by the substance to be tested can be determined relative to the signal of the unstimulated reaction.
The activation of haem-free guanylate cyclase is examined by addition of 25 μM of 1H-1,2,4-oxadiazolo[4,3-a]quinoxalin-1-one (ODQ) to the enzyme solution and subsequent incubation for 30 minutes, and compared to the stimulation of the native enzyme.

[3] = test system: recombinant guanylate cyclase reporter cell line; assay: Action at recombinant guanylate cyclase reporter cell line (CHO reporter cell); type: cell-based; conditions: MEC = minimal effective concentration; read-out: sGC-activating activity in the CHO reporter cell in vitro, MEC
Description: The cellular action of the compounds according to the invention is determined at a recombinant guanylate cyclase reporter cell line, as described in F. Wunder et al., Anal. Biochem. 339, 104-112 (2005).

[4] = target: T3, haem-free recombinant soluble guanylate cyclase (sGC) (Rattus norvegicus, UniProt P20595); assay: Stimulation of recombinant soluble guanylate cyclase (sGC) in vitro, haem-free enzyme; type: biochemical
T3 construct: made in house; host or cells: Sf9 insect cells (baculovirus)
T3 sequence (P20595 1-619): T1 sequence (P20595 1-619)
T3 sequence (P19686 1-690 partner): T1 sequence (P19686 1-690 partner)
Description: as §1, §2

| Stimulation (x-fold) of recombinant sGC, haem-containing sGC, +0.01 μM DEA/NO ([1]; 0.01 μM test compound) [x-fold] | Stimulation (x-fold) of recombinant sGC, haem-containing sGC, +10 μM ODQ ([1]; 0.01 μM test compound) [x-fold] | Stimulation (x-fold) of recombinant sGC, haem-containing sGC, basal ([1]; 0.01 μM test compound) [x-fold] | Stimulation (x-fold) of recombinant sGC, haem-containing sGC, +0.01 μM DEA/NO ([1]; 0.1 μM test compound) [x-fold] | Stimulation (x-fold) of recombinant sGC, haem-containing sGC, +10 μM ODQ ([1]; 0.1 μM test compound) [x-fold] | Stimulation (x-fold) of recombinant sGC, haem-containing sGC, basal ([1]; 0.1 μM test compound) [x-fold] | Stimulation (x-fold) of recombinant sGC, haem-containing sGC, +0.01 μM DEA/NO ([1]; 1.0 μM test compound) [x-fold] | Stimulation (x-fold) of recombinant sGC, haem-containing sGC, +10 μM ODQ ([1]; 1.0 μM test compound) [x-fold] | Stimulation (x-fold) of recombinant sGC, haem-containing sGC, basal ([1]; 1.0 μM test compound) [x-fold] | Stimulation (x-fold) of recombinant sGC, haem-containing sGC, +0.01 μM DEA/NO ([1]; 10 μM test compound) [x-fold] | Stimulation (x-fold) of recombinant sGC, haem-containing sGC, +10 μM ODQ ([1]; 10 μM test compound) [x-fold] | Stimulation (x-fold) of recombinant sGC, haem-containing sGC, basal ([1]; 10 μM test compound) [x-fold] | Stimulation (x-fold) of recombinant sGC, haem-containing sGC, +0.01 μM DEA/NO ([1]; 100 μM test compound) [x-fold] | Stimulation (x-fold) of recombinant sGC, haem-containing sGC, +10 μM ODQ ([1]; 100 μM test compound) [x-fold] | Stimulation (x-fold) of recombinant sGC, haem-containing sGC, basal ([1]; 100 μM test compound) [x-fold] | Effect of combination with the NO donor DEA/NO on sGC stimulation [1] | EC50 [2] [nM] | Activating action at the sGC enzyme in vitro, MEC [2] [nM] | Stimulation (x-fold) of recombinant sGC, haem-free sGC, basal ([4]; 0.01 μM test compound) [x-fold] | Structure (SMILES) | minimal effective concentration [3] [µM] | further results |
| --- | --- | --- | --- | --- | --- | --- | --- | --- | --- | --- | --- | --- | --- | --- | --- | --- | --- | --- | --- | --- | --- |
| 5.9 ± 0.7 | 4.6 ± 0.8 | 1.1 ± 0.1 | 7.4 ± 0.8 | 4.5 ± 0.6 | 1.0 ± 0.1 | 8.5 ± 0.7 | 4.8 ± 0.8 | 0.9 ± 0.1 | 11.5 ± 0.9 | 16.3 ± 1.3 | 3.1 ± 0.3 | 45.9 ± 3.1 | 97.3 ± 7.7 | 31.6 ± 2.6 | no synergistic effect | 290 | 10 | 1.7 ± 0.3 | C[C@H]([C@H](C(=O)Nc1cc(CCC(=O)O)ccc1Cl)c1ccc(Cl)cc1)C(F)(F)F [Example 15, (+)-3-(4-Chloro-3-{[(2S,3R)-2-(4-chlorophenyl)-4,4,4-trifluoro-3-methylbutanoyl]amino}phenyl)-propanoic acid] | 0.01 | Stimulation (x-fold) of recombinant sGC, haem-free sGC, basal ([4]; 0.1 μM test compound): 1.8 ± 0.2 x-fold; Stimulation (x-fold) of recombinant sGC, haem-free sGC, basal ([4]; 1.0 μM test compound): 3.0 ± 0.5 x-fold; Stimulation (x-fold) of recombinant sGC, haem-free sGC, basal ([4]; 10 μM test compound): 17.9 ± 3.1 x-fold; Stimulation (x-fold) of recombinant sGC, haem-free sGC, basal ([4]; 100 μM test compound): 40.3 ± 6.6 x-fold |
| 9.6 ± 0.8 | 4.9 ± 1.2 | 0.7 ± 0.2 | 8.8 ± 1.2 | 5.3 ± 1.3 | 0.6 ± 0.1 | 9.8 ± 1.2 | 4.5 ± 1.1 | 0.6 ± 0.1 | 10.7 ± 1.0 | 8.3 ± 1.4 | 1.8 ± 0.3 | 11.4 ± 1.2 | 15.0 ± 2.0 | 4.9 ± 0.7 | no synergistic effect | 130 | 7 | 1.7 ± 0.2 | C[C@H]([C@H](C(=O)Nc1cc(C[C@H](C)C(=O)O)ccc1Cl)c1ccc(Cl)cc1)C(F)(F)F [Example 17, (+)-(2S)-3-(4-Chloro-3-{[(2S,3R)-2-(4-chlorophenyl)-4,4,4-trifluoro-3-methylbutanoyl]amino}-phenyl)-2-methylpropanoic acid] | 0.0048 | Stimulation (x-fold) of recombinant sGC, haem-free sGC, basal ([4]; 0.1 μM test compound): 2.0 ± 0.3 x-fold; Stimulation (x-fold) of recombinant sGC, haem-free sGC, basal ([4]; 1.0 μM test compound): 4.1 ± 0.3 x-fold; Stimulation (x-fold) of recombinant sGC, haem-free sGC, basal ([4]; 10 μM test compound): 22.9 ± 1.8 x-fold; Stimulation (x-fold) of recombinant sGC, haem-free sGC, basal ([4]; 100 μM test compound): 33.5 ± 3.3 x-fold |
